The text below walks through data of patent publication US4335136A, “Anti-inflammatory 4,5-diaryl-α-(polyfluoroalkyl)-1H-pyrrole-2-methanamines” (E. I. Du Pont de Nemours and Company, priority 1981, dated 1982).

Molecules are shown by their SMILES. Bounds are passed on as bounds.

For test [1], the system named is adjuvant-induced arthritis in rats. The experiment in a line: Established Adjuvant-Induced Arthritis in Rats. Format: in vivo, Lewis (Wistar) male rats. The note with it: rat; for ED50: oral gavage once daily for 7 days (days 14-20), paw volume of uninjected left hind paw on day 21, ED50 % estimated by inspection, read-out: Adjuvant Arthritic ED 50; for Percent decrease from control mean paw volume (in parentheses after the ED50 bound): oral once daily for 7 days, presumably at the bounding dose.

Test [2] concerns phenylquinone writhing in mice. The experiment in a line: Phenylquinone writhing test. Format: in vivo, female white mice. The note with it: Mus musculus, 0.5 h; fasted female mice, oral; phenylquinone i.p. 24 minutes later; observed for 10 minutes from 30 minutes after dosing; read-out: Analgesic Phenylquinone Writhing ED50. How it is done: PHENYLQUINONE WRITHING TEST
The phenylquinone writhing test, modified from Siegmund, et al., Proc. Soc. Exp. Biol. Med., 95, 729 (1957), was employed. A test compound suspended in 1% methylcellulose was given orally to fasted (17-21 hours) female white mice, 5-20 animals per double blind test. Aqueous (0.01% phenyl-p-benzoquinone) phenylquinone was injected intraperitoneally 24 minutes later using 0.20 ml per mouse. […] The effective analgesic dose for 50% of the mice (ED50) was calculated by the moving average method of Thompson, W. R., Bact. Rev., 11, 115-145 (1947).
On the technique in general: An intraperitoneal irritant provokes the stretching counted in writhing tests.

With `NC(c1cc(-c2ccc(Cl)cc2)c(-c2ccc(Cl)cc2)[nH]1)(C(F)(F)F)C(F)(F)F` [Example 10], the ED50 in test [1] was 4.4 mg/kg; in test [2], above 108 mg/kg.
For `NC(c1cc(-c2ccc(F)cc2)c(-c2ccc(Br)cc2)[nH]1)(C(F)(F)F)C(F)(F)F` [Example 6], in that order: 3.4 mg/kg and above 108 mg/kg.
The corresponding values for `CN(C)c1ccc(-c2[nH]c(C(N)(C(F)(F)F)C(F)(F)F)cc2-c2ccc(F)cc2)cc1` [Example 9] are 4.9 mg/kg and above 108 mg/kg.
The corresponding values for `COc1ccc(-c2cc(C(N)(C(F)(F)F)C(F)(F)F)[nH]c2-c2ccc(OC)cc2)cc1` [Example 4] are 3.3 mg/kg and 45 mg/kg.
With `CNC(c1cc(-c2ccc(F)cc2)c(-c2ccc(F)cc2)n1C)(C(F)(F)F)C(F)(F)F` [Example 14, 4,5-Bis(4-fluorophenyl)-N,1-dimethyl-α,α-di(trifluoromethyl)-1H-pyrrole-2-methanamine], the figures for the ED50 in test [1] and in test [2] were 1 mg/kg and above 108 mg/kg, respectively.
For `Cc1c(C(N)(C(F)(F)F)C(F)(F)F)[nH]c(-c2ccc(F)cc2)c1-c1ccc(F)cc1` [Example 8], in that order: 0.77 mg/kg and above 108 mg/kg.
For `NC(c1cc(-c2ccc(F)cc2)c(-c2ccc(F)cc2)[nH]1)(C(F)(F)F)C(F)(F)Cl` (stereo not shown) [Example 15], the ED50 in test [1] was 0.7 mg/kg.
With `NC(c1cc(-c2ccc(F)cc2)c(-c2ccc(F)cc2)[nH]1)(C(F)(F)F)C(F)(F)F` [Example 1, 4,5-Bis(4-fluorophenyl)-α,α-bis(trifluoromethyl)-1H-pyrrole-2-methanamine], the ED50 in test [1] was 0.45 mg/kg; in test [2], 27 mg/kg.
Turning to `NC(c1cc(-c2ccc(F)cc2)c(-c2ccc(F)cc2)n1Cc1ccccc1)(C(F)(F)F)C(F)(F)F` [Example 13], the ED50 in test [1] is above 25 mg/kg; in test [2], above 108 mg/kg. The “Percent decrease from control mean paw volume (in parentheses after the ED50 bound)” value in test [1] (25 mg/kg) is on record as 24%.
Consider `NC(c1cc(-c2ccc(F)cc2)c(-c2cccnc2)[nH]1)(C(F)(F)F)C(F)(F)F` [Example 12], for which the figures for the ED50 in test [1] and in test [2] were 12.5 mg/kg and above 108 mg/kg, respectively.
Consider `NC(c1cc(-c2ccc(F)cc2)c(-c2ccc(F)cc2)[nH]1)C(F)(F)F` (stereo not drawn) [Example 2, 4,5-Bis(4-fluorophenyl)-α-(trifluoromethyl)-1H-pyrrole-2-methanamine], for which the ED50 in test [1] is above 25 mg/kg. Also, the “Percent decrease from control mean paw volume (in parentheses after the ED50 bound)” value in test [1] (25 mg/kg) was determined as 29%.
As for `CNC(c1cc(-c2ccc(F)cc2)c(-c2ccc(F)cc2)[nH]1)(C(F)(F)F)C(F)(F)F` [Example 5, 4,5-Bis(4-fluorophenyl)-N-methyl-α,α-di(trifluoromethyl)-1H-pyrrole-2-methanamine], the ED50 in test [1] is 0.8 mg/kg; in test [2], above 108 mg/kg.
The corresponding values for `NC(c1cc(-c2ccccc2)c(-c2ccccc2)[nH]1)(C(F)(F)F)C(F)(F)F` [Example 11] are 20 mg/kg and above 108 mg/kg.
In the case of `Cc1ccc(-c2cc(C(N)(C(F)(F)F)C(F)(F)F)[nH]c2-c2ccc(C)cc2)cc1` [Example 7], the values for the ED50 in test [1] and in test [2] were above 9 mg/kg and above 108 mg/kg, respectively. In test [1] (9 mg/kg), the “Percent decrease from control mean paw volume (in parentheses after the ED50 bound)” value came out at 45%.
Take `Cn1c(C(N)(C(F)(F)F)C(F)(F)F)cc(-c2ccc(F)cc2)c1-c1ccc(F)cc1` [Example 3]: the ED50 is 2.6 mg/kg in test [1] and above 108 mg/kg in test [2].
